Test results: patent publication US20260000079A1, “COMPOSITIONS AND METHODS FOR MODULATING IMMUNITY IN PLANTS” (BOYCE THOMPSON INSTITUTE FOR PLANT RESEARCH, INC., priority 2019, published 2026)

Legend:
[1] = system: Arabidopsis wildtype and ibr10, ech2, ech2ibr10, or acx1acx5 mutants; format: in vivo, Arabidopsis thaliana; settings: roots treated with 1 μM ascr #18
Protocol: FIG. 3A provides a comparison of peroxisomal β-oxidation (pβo) pathways and associated enzymes involved in the conversion of indole-3-butyric acid (IBA)-to-indole acetic acid (IAA) in Arabidopsis and ascaroside biosynthesis in C. elegans. FIG. 3B provides LC-MS analysis of Arabidopsis seedlings treated with 1 μM ascr #18 for 24 hours before sample extraction, comparing ascr #9 production in wildtype and ibr10, ech2, ech2ibr10, or acx1acx5 mutants. FIG. 3C provides a comparison of ascaroside abundances in Arabidopsis wildtype and acx1acx5 roots treated with 1 μM ascr #18. Data are averages±SEM (n=5); n.d.=not detected. FIG. 3D provides RNAseq analysis of ten day-old Arabidopsis wildtype and acx1acx5 mutant roots, plotted as transcript abundance. Data are averages±s.d (n=6).
Arabidopsis thaliana mutant genotypes in the Col-0 background, ibr10-1, ech2-1, ibr10-1ech2-1, and acx1-2acx5-1, were obtained from Rice University (Houston, TX) (Strader, et al. (2011) Plant Cell 23:984-999; Adham, et al. (2005) Plant J. 41:859-874).
To test whether ascr #18 is metabolized via pβo in plants, Arabidopsis mutants impaired in key enzymes of this pathway were analyzed (FIG. 3B). […] In contrast, two other putative po genes, ibr10 and ech2, a putative enoyl-CoA hydratases (Strader, et al. (2011) Plant Cell 23:984-999; Adham, et al. (2005) Plant J. 41:859-874; Zolman, et al. (2008) Genetics 180(1): 237-51), are not required for ascr #18 metabolism in Arabidopsis. ACXs participate in the […] step of pβo by introducing α,β-unsaturation in the side-chain (Von Reuss, et al. (2012) J. Am. Chem. Soc. 134:1817-1824; Strader, et al. (2011) Plant Cell 23:984-999). […] These observations indicate that ascr #18 metabolism in plants into shorter-chained ascarosides proceeds via pβo, and that ACX1 and/or ACX5 are strictly required for chain shortening of ascr #10, whereas the first chain-shortening step from ascr #18 to ascr #10 may involve additional acyl-CoA oxidases.

[2] = system: Arabidopsis root exudates; assay: LC-MS of root exudates of ascr #18-treated Arabidopsis seedlings; format: in vivo, Arabidopsis thaliana; settings: for secretion of ascr #18 metabolites via roots: ascr #18-treated wildtype, 6 hours treatment
Protocol: (§1) Data are average±SEM (n=6), n.d.=not detected. […] Exudates from approximately 40 seedlings were collected in distilled water and pooled. Abundances of ascarosides are shown as the peak area, as measured by LC-MS. Data are average±SEM (n=3); n.d.=not detected. FIGS. 5C and 5D show the relative abundances of ascarosides in root exudates of eight-day old tomato seedlings treated with 10 nM (FIG. 5C) or 1000 nM (FIG. 5D) ascr #18 for 6 hours. Exudates from approximately 10 seedlings were collected in distilled water and pooled. Abundances of ascarosides are shown as the peak area, as measured by LC-MS. Data are average±SEM (n=3); n.d.=not detected. FIG. 5E provides the relative abundances of ascr #10, ascr #1, and ascr #9 in the growth media of eight-day old tomato seedlings supplemented with 1 μM ascr #18. Ten-gram media samples were collected at different time points over a 48 hour period for metabolome extraction. Abundances of ascarosides are shown as the peak area, as measured by LC-MS.
(§2) To test this possibility, root-secreted metabolites of ascr #18- and mock-treated Arabidopsis were compared (FIG. 5A). For this experiment, 10-day old Arabidopsis seedlings were treated in growth media supplemented with ascr #18 for 6 hours prior to collection of exudates from roots submerged in water. […] Analogous results were obtained in experiments with tomato roots (FIG. 5C, 5D).

tomato root exudates = assay: LC-MS of root exudates and growth media of ascr #18-treated tomato seedlings; format: in vivo, Solanum lycopersicum
Protocol: as §1, §2

Compound | ascaroside levels in ascr #18-treated acx1acx5 mutant compared with wildtype [1] | secretion of ascr #18 metabolites via roots [2] | relative abundance among root-excreted ascr #18 metabolites (tomato root exudates) | relative abundance among root-excreted ascr #18 metabolites ([2]; Arabidopsis) | ascarosides in root exudates of acx1acx5 ([2]; acx1acx5 seedlings, 10 nM ascr #18 for 6 hours)
C[C@H](CCCCC(=O)O)O[C@@H]1O[C@@H](C)[C@H](O)C[C@H]1O [ascr #1] | not detected | secretion | – | – | –
C[C@H](CCCCCCC(=O)O)O[C@@H]1O[C@@H](C)[C@H](O)C[C@H]1O [ascr #10] | smaller amounts | secretion | least abundant | least abundant | detected
